For this assay, the system named is human PGC-1α promoter. Nature of the assay: Modulation of the human PGC-1α promoter activity (luciferase reporter, Hep G2). It is filed as cell-based. Conditions: Hep G2 transfected with luciferase under human PGC-1α promoter; peptide 0.5 mg/mL, 24 hours; normalized to carrier = 100%. As to the method: The modulation capacity of the promoter of human PGC-1α is evaluated by the peptides in the invention in the hepatocellular Hep G2 carcinoma cell line transfected with the luciferase gene under the regulation of the human PGC-1α promoter. The cells are seeded at a density of 20,000 cells/25 cm^2 plate) and incubated for 24 hours in RPMI-1640 complete medium, after which the peptides of the invention are added at 0.5 mg/mL and are incubated for another 24 hours. The RPMI-1640 complete medium (carrier) is used as a negative control. The measurement of the promoter's activity is carried out using the Steady-Glo® Luciferase Assay System (PROMEGA) kit following the manufacturer's instructions. The luminescence values are read on a luminometer […] and the activity of the promoter is determined, which is normalized with regards to the values of the negative control.
(A reporter such as luciferase makes a cellular process visible.)
With “Ac-L-His-L-Ile-L-Tyr-L-Val-L-Ala-L-Val-NH2 (Ac-HIYVAV-NH2) [Ac-SEQ ID NO. 25-NH2]”, the “Activity of the PGC-1α promoter (%)” value was determined as 76%.

For “Ac-L-His-L-Ile-L-Tyr-L-Val-L-Arg-L-Thr-NH2 (Ac-HIYVRT-NH2) [Ac-SEQ ID NO. 10-NH2]”, the “Activity of the PGC-1α promoter (%)” value worked out at 115%.

For the substance “Ac-L-His-L-Ile-L-Tyr-L-Val-L-Arg-L-Val-NH2 (Ac-HIYVRV-NH2) [Ac-SEQ ID NO. 33-NH2]”, the “Activity of the PGC-1α promoter (%)” value was determined as 117%.

In the case of “Ac-L-His-L-Ile-L-Val-L-Val-L-Ala-L-Thr-NH2 (Ac-HIVVAT-NH2) [Ac-SEQ ID NO. 6-NH2]”, the “Activity of the PGC-1α promoter (%)” value was 72%.

For “Ac-L-His-L-Ile-L-Val-L-Val-L-Ala-L-Val-NH2 (Ac-HIVVAV-NH2) [Ac-SEQ ID NO. 29-NH2]”, the “Activity of the PGC-1α promoter (%)” value worked out at 81%.

Take “Ac-L-His-L-Ile-L-Val-L-Val-L-Arg-L-Val-NH2 (Ac-HIVVRV-NH2) [Ac-SEQ ID NO. 37-NH2]”: the “Activity of the PGC-1α promoter (%)” value is 118%.

Regarding “Ac-L-His-L-Val-L-Tyr-L-Val-Gly-L-Val-NH2 (Ac-HVYVGV-NH2) [Ac-SEQ ID NO. 43-NH2]”, the “Activity of the PGC-1α promoter (%)” value is on record as 75%.

With “Ac-L-His-L-Val-L-Tyr-L-Val-L-Ala-L-Thr-NH2 (Ac-HVYVAT-NH2) [Ac-SEQ ID NO. 4-NH2]”, the “Activity of the PGC-1α promoter (%)” value is recorded as 77%.

Take “Ac-L-His-L-Val-L-Tyr-L-Val-L-Ala-L-Val-NH2 (Ac-HVYVAV-NH2) [Ac-SEQ ID NO. 27-NH2]”: the “Activity of the PGC-1α promoter (%)” value turned out to be 42%.

As to “Ac-L-His-L-Val-L-Tyr-L-Val-L-Arg-L-Val-NH2 (Ac-HVYVRV-NH2) [Ac-SEQ ID NO. 35-NH2]”, the “Activity of the PGC-1α promoter (%)” value is recorded as 132%.

In the case of “Ac-L-His-L-Val-L-Val-L-Val-L-Ala-L-Thr-NH2 (Ac-HVVVAT-NH2) [Ac-SEQ ID NO. 8-NH2]”, the “Activity of the PGC-1α promoter (%)” value is given as 89%.

Turning to “Ac-L-His-L-Val-L-Val-L-Val-L-Arg-L-Val-NH2 (Ac-HVVVRV-NH2) [Ac-SEQ ID NO. 39-NH2]”, the “Activity of the PGC-1α promoter (%)” value was 186%.

Take “Ac-L-Ser-L-Ile-L-Tyr-L-Val-Gly-L-Thr-NH2 (Ac-SIYVGT-NH2) [Ac-SEQ ID NO. 18-NH2]”: the “Activity of the PGC-1α promoter (%)” value was found to be 64%.

In the case of “Ac-L-Ser-L-Ile-L-Tyr-L-Val-Gly-L-Val-NH2 (Ac-SIYVGV-NH2) [Ac-SEQ ID NO. 42-NH2]”, the “Activity of the PGC-1α promoter (%)” value is listed as 64%.

“Ac-L-Ser-L-Ile-L-Tyr-L-Val-L-Ala-L-Val-NH2 (Ac-SIYVAV-NH2) [Ac-SEQ ID NO. 26-NH2]”: the “Activity of the PGC-1α promoter (%)” value is 40%.

Turning to “Ac-L-Ser-L-Ile-L-Tyr-L-Val-L-Arg-L-Val-NH2 (Ac-SIYVRV-NH2) [Ac-SEQ ID NO. 34-NH2]”, the “Activity of the PGC-1α promoter (%)” value came to 134%.

Regarding “Ac-L-Ser-L-Ile-L-Val-L-Val-L-Ala-L-Thr-NH2 (Ac-SIVVAT-NH2) [Ac-SEQ ID NO. 7-NH2]”, the “Activity of the PGC-1α promoter (%)” value amounted to 145%.

As for “Ac-L-Ser-L-Ile-L-Val-L-Val-L-Ala-L-Val-NH2 (Ac-SIVVAV-NH2) [Ac-SEQ ID NO. 30-NH2]”, the “Activity of the PGC-1α promoter (%)” value is 120%.

Consider “Ac-L-Ser-L-Ile-L-Val-L-Val-L-Arg-L-Thr-NH2 (Ac-SIVVRT-NH2) [Ac-SEQ ID NO. 15-NH2]”, for which the “Activity of the PGC-1α promoter (%)” value is listed as 150%.

As for “Ac-L-Ser-L-Ile-L-Val-L-Val-L-Arg-L-Val-NH2 (Ac-SIVVRV-NH2) [Ac-SEQ ID NO. 38-NH2]”, the “Activity of the PGC-1α promoter (%)” value is 180%.

With “Ac-L-Ser-L-Val-L-Tyr-L-Val-Gly-L-Thr-NH2 (Ac-SVYVGT-NH2) [Ac-SEQ ID NO. 20-NH2]”, the “Activity of the PGC-1α promoter (%)” value was 76%.

As to “Ac-L-Ser-L-Val-L-Tyr-L-Val-Gly-L-Val-NH2 (Ac-SVYVGV-NH2) [Ac-SEQ ID NO. 44-NH2]”, the “Activity of the PGC-1α promoter (%)” value worked out at 67%.

As for “Ac-L-Ser-L-Val-L-Tyr-L-Val-L-Arg-L-Val-NH2 (Ac-SVYVRV-NH2) [Ac-SEQ ID NO. 36-NH2]”, the “Activity of the PGC-1α promoter (%)” value came to 136%.
